Results from article PMC11170969, “Photoaffinity probe‐based antimalarial target identification of artemisinin in the intraerythrocytic developmental cycle of Plasmodium falciparum” (iMeta, 2024).

Experiments:
[1] = target: T1, PfTIM (Plasmodium falciparum, UniProt Q7KQM0); assay: enzyme activity inhibition; type: biochemical; conditions: binding also shown by DARTS; activity assay conditions not stated in main text
T1 construct: gene TPI; recombinant, pET-28a(+), E. coli BL21(DE3), Ni-NTA

[2] = target: T2, PfGAPDH (Plasmodium falciparum, UniProt Q8IKK7); assay: enzyme activity inhibition; type: biochemical; conditions: binding also shown by DARTS; activity assay conditions not stated in main text; covalent Glu59 adduct suggested by MS in a separate test with hemin and ascorbate
T2 construct: gene PF3D7_1462800; recombinant, pET-28a(+), E. coli BL21(DE3), Ni-NTA

[3] = target: T3, PfOAT (Plasmodium falciparum, UniProt Q6LFH8); assay: OAT activity assay kit, absorbance at […] nm; type: biochemical; conditions: without heme activation (also tested with heme activation); 1 h preincubation; methods name the inhibitor ART, 0-80 μM
T3 construct: gene OAT; recombinant, pET-28a(+), E. coli BL21(DE3), Ni-NTA
T3 sequence (Q6LFH8 1-414): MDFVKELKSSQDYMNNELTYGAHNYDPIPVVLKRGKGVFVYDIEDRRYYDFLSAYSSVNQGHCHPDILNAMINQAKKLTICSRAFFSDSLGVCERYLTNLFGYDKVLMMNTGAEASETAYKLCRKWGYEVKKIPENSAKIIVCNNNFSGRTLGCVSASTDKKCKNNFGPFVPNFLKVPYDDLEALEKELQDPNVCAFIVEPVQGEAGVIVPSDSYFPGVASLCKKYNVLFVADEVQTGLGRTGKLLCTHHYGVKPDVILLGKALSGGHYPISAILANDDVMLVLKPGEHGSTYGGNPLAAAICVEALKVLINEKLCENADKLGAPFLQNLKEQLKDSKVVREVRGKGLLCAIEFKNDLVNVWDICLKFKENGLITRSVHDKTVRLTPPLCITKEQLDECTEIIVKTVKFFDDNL

[4] = target: T4, PfLDH (Plasmodium falciparum, UniProt Q76NM3); assay: enzyme activity inhibition; type: biochemical; conditions: binding also shown by DARTS; activity assay conditions not stated in main text
T4 construct: gene PF3D7_1324900; recombinant, pET-28a(+), E. coli BL21(DE3), Ni-NTA

[5] = target: T5, PfEGF1‐α (Plasmodium falciparum, UniProt Q8I0P6); assay: DARTS; competition with APP photolabelling; type: binding; conditions: DARTS: 5 μM protein, room temperature, 2 h, pronase; competition: 10 μM ATS
T5 construct: gene PF3D7_1357000; recombinant, pET-28a(+), E. coli BL21(DE3), Ni-NTA
T5 sequence (Q8I0P6 1-443): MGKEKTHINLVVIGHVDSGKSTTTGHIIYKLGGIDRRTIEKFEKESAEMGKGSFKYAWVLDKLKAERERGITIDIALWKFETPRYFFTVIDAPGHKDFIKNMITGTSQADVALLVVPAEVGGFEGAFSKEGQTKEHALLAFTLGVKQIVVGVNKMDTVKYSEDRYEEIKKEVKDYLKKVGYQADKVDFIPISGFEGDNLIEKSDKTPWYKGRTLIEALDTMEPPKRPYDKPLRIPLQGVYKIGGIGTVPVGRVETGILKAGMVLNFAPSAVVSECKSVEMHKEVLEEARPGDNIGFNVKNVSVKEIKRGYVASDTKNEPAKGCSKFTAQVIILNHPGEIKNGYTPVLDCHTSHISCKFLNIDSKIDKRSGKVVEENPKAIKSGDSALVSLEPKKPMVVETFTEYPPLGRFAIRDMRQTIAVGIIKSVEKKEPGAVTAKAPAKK

T4 sequence (Q76NM3 1-316): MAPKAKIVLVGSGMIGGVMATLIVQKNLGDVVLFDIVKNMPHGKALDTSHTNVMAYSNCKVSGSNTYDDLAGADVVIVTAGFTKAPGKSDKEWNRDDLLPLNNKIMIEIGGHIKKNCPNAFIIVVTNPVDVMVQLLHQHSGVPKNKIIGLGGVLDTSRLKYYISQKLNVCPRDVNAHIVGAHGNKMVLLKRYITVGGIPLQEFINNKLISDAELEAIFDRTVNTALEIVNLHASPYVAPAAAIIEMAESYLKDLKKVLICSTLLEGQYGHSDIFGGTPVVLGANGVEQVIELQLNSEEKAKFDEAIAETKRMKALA
T2 sequence (Q8IKK7 entry or part of it): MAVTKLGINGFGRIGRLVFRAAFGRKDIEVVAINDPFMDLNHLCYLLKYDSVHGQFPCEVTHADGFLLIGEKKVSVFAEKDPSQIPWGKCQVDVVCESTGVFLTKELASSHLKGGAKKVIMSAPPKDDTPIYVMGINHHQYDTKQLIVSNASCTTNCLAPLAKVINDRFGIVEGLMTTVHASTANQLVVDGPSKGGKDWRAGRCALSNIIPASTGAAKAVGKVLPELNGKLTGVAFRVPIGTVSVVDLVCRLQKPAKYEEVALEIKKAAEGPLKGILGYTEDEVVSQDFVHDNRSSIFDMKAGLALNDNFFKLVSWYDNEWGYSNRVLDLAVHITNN
T1 sequence (Q7KQM0 whole entry): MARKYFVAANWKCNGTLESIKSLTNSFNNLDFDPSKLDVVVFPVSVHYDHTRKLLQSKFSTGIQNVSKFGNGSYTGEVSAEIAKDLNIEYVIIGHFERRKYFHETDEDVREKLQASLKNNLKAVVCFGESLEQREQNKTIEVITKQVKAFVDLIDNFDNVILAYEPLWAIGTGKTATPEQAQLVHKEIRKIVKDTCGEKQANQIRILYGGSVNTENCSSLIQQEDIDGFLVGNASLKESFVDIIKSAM

## C[C@H]1[C@H](OC(=O)CCC(=O)O)O[C@@H]2O[C@@]3(C)CC[C@H]4[C@H](C)CC[C@@H]1[C@@]24OO3 [ATS, artesunate]
[1]
  half-maximal inhibitory concentration: the half‐maximal inhibitory concentrations were at low micromolar concentrations
[2]
  half-maximal inhibitory concentration: the half‐maximal inhibitory concentrations were at low micromolar concentrations
[3]
  OAT activity assay kit, absorbance at 340 nm: ATS can significantly inhibit its enzyme activity in both heme‐activated and nonactivated states
[4]
  half-maximal inhibitory concentration: the half‐maximal inhibitory concentrations were at low micromolar concentrations
[5]
  DARTS; competition with APP photolabelling: the PfEGF1‐α proteins became more resistant to proteolysis after incubation with ATS
